Data published in ChEMBL document CHEMBL6096636 (Bioorg Med Chem, 2024).

Columns and labels:
[1] = Cytotoxicity against HEK293T cells assessed as inhibition of cell growth incubated for 72 hrs by CCK8 assay; format: toxicity, cell-based, HEK-293T; conditions: human
Plasmodium falciparum [2] = assay: microbe, parasite or virus in culture; conditions: 3D7, 72 h
Description: Antimalarial activity against erythrocytic stage of Plasmodium falciparum 3D7 assessed as inhibition of growth incubated for 72 hrs by SYBR green I based assay

[3] = Cytotoxicity against human HepG2 cells assessed as inhibition of cell growth incubated for 72 hrs by CCK8 assay; format: toxicity, cell-based
[4] = Selectivity index, ratio of IC50 for human HepG2 cells to IC50 for erythrocytic stage of Plasmodium falciparum 3D7; format: toxicity, cell-based; conditions: read-out: Ratio IC50
[5] = Selectivity index, ratio of IC50 for HEK293T cells to IC50 for erythrocytic stage of Plasmodium falciparum 3D7; format: toxicity, cell-based; conditions: human, read-out: Ratio IC50
Plasmodium falciparum [6] = assay: microbe, parasite or virus in culture; conditions: Dd2, 72 h
Description: Antimalarial activity against erythrocytic stage of chloroquine-resistant Plasmodium falciparum Dd2 assessed as inhibition of growth incubated for 72 hrs by SYBR green I based assay

Plasmodium falciparum [7] = assay: Antimalarial activity against sulfadoxine-pyrimethamine and mefloquine resistant Plasmodium falciparum clinical isolate CP286 assessed as inhibition of growth incubated for 72 hrs by SYBR green I based assay; format: functional, organism-based

Row | Compound | IC50 at 72 h [1] | IC50 (Plasmodium falciparum [2]) | IC50 at 72 h [3] | selectivity ratio [4] | selectivity ratio [5] | IC50 (Plasmodium falciparum [6]) | IC50 (Plasmodium falciparum [7])
1 | Cn1cc(CN[C@H]2CC[C@@H](Nc3ncc(C(=O)NO)cn3)CC2)c2ccc(F)cc21 | 6 µM | 0.012 µM | 3.19 µM | 267 | 501 | 0.0145 µM | 
2 | O=C(NO)c1cnc(N[C@H]2CC[C@@H](NCc3ccc4cc(F)ccc4n3)CC2)nc1 | 2.38 µM | 0.0112 µM | 3.62 µM | 324 | 213 | 0.0158 µM | 
3 | Cn1cc(CN[C@H]2CC[C@@H](Nc3ncc(C(=O)NO)cn3)CC2)c2ncccc21 | 1.25 µM | 0.0467 µM | > 10 µM | > 214 | 27 | 0.0383 µM | 
4 | O=C(NO)c1cnc(N[C@H]2CC[C@@H](NCC3CCCC3)CC2)nc1 | 5.88 µM | 0.1 µM | 5.49 µM | 55 | 59 | 0.0701 µM | 
5 | O=C(NO)c1cnc(N[C@H]2CC[C@@H](NCc3ccc4ccc5cccc6ccc3c4c56)CC2)nc1 | 2.64 µM | 0.0303 µM | 2.13 µM | 70 | 87 | 0.0288 µM | 
6 | Cn1nc(CN[C@H]2CC[C@@H](Nc3ncc(C(=O)NO)cn3)CC2)c2ccccc21 | 5.74 µM | 0.0273 µM | 5.79 µM | 212 | 210 | 0.0312 µM | 
7 | O=C(NO)c1cnc(N[C@H]2CC[C@@H](NCc3csc4ccccc34)CC2)nc1 | 1.94 µM | 0.0253 µM | 1.36 µM | 54 | 77 | 0.0348 µM | 
8 | O=C(NO)c1cnc(N[C@H]2CC[C@@H](NCc3ccc4ncccc4c3)CC2)nc1 | 6.98 µM | 0.0445 µM | 6.38 µM | 143 | 157 | 0.0472 µM | 
9 | O=C(NO)c1cnc(N[C@H]2CC[C@@H](NCc3cccc4ccccc34)CC2)nc1 | 1.53 µM | 0.0343 µM | 0.642 µM | 19 | 47 | 0.0395 µM | 
10 | CCc1nc(N)nc(N)c1-c1ccc(Cl)cc1 [PYRIMETHAMINE] |  | 0.0248 µM |  |  |  |  | > 50 µM
11 | O=C(NO)c1cnc(N[C@H]2CC[C@@H](NCc3c4ccccc4cc4ccccc34)CC2)nc1 | 1.03 µM | 0.009 µM | 0.858 µM | 95 | 114 | 0.0075 µM | 
12 | O=C(NO)c1cnc(N[C@H]2CC[C@@H](NCc3cnc4ccccc4c3)CC2)nc1 | 4.36 µM | 0.0271 µM | 3.33 µM | 123 | 161 | 0.0376 µM | 
13 | O=C(NO)c1cnc(N[C@H]2CC[C@@H](NCc3ccc4ccccc4n3)CC2)nc1 | 2.89 µM | 0.0104 µM | 2.43 µM | 233 | 278 | 0.0143 µM | 
14 | Cn1cc(CN[C@H]2CC[C@@H](Nc3ncc(C(=O)NO)cn3)CC2)c2ccc(Br)cc21 | 4.83 µM | 0.0222 µM | 2.22 µM | 100 | 217 | 0.019 µM | 
15 | Cn1c(CN[C@H]2CC[C@@H](Nc3ncc(C(=O)NO)cn3)CC2)nc2ccccc21 | > 10 µM | 0.0196 µM | > 10 µM | > 510 | > 510 | 0.0264 µM | 
16 | O=C(NO)c1cnc(N[C@H]2CC[C@@H](NCc3ccsc3)CC2)nc1 | > 10 µM | 0.132 µM | > 10 µM | > 76 | > 76 | 0.0712 µM | 
17 | O=C(NO)c1cnc(N[C@H]2CC[C@@H](NCc3cc4ccccc4s3)CC2)nc1 | 2.38 µM | 0.0218 µM | 1.44 µM | 66 | 109 | 0.0264 µM | 
18 | O=C(NO)c1cnc(N[C@H]2CC[C@@H](NCc3cccc4ccncc34)CC2)nc1 | 7.08 µM | 0.0434 µM | 7.08 µM | 163 | 163 | 0.0621 µM | 

Row | Compound | IC50 at 72 h [1] | IC50 (Plasmodium falciparum [2]) | IC50 at 72 h [3] | selectivity ratio [4] | selectivity ratio [5] | IC50 (Plasmodium falciparum [6]) | IC50 (Plasmodium falciparum [7])
19 | O=C(NO)c1cnc(N[C@H]2CC[C@@H](NCc3ccccc3)CC2)nc1 | 4.62 µM |  |  |  | 44 | 0.0546 µM | 
20 | O=C(NO)c1cnc(N[C@H]2CC[C@@H](NCc3coc4ccccc34)CC2)nc1 | 3.11 µM | 0.0508 µM | 2.58 µM | 51 | 61 | 0.0355 µM | 
21 | Cn1cc(CN[C@H]2CC[C@@H](Nc3ncc(C(=O)NO)cn3)CC2)c2ccncc21 | > 10 µM | 0.0521 µM | > 10 µM | > 192 | > 192 | 0.0494 µM | 
22 | O=C(NO)c1cnc(N[C@H]2CC[C@@H](NCc3cccnc3)CC2)nc1 | 4.24 µM | 0.114 µM | 4.58 µM | 40 | 37 | 0.0565 µM | 
23 | Cn1cc(CN[C@H]2CC[C@@H](Nc3ncc(C(=O)NO)cn3)CC2)c2ccccc21 | 4.31 µM | 0.0108 µM | 1.77 µM | 163 | 399 | 0.0119 µM | 
24 | Cn1cc(CN[C@H]2CC[C@@H](Nc3ncc(C(=O)NO)cn3)CC2)c2ccc(Cl)cc21 | 3.65 µM | 0.0171 µM | 2.5 µM | 146 | 213 | 0.018 µM | 
25 | O=C(NO)c1cnc(N[C@H]2CC[C@@H](NCc3cccc4cccnc34)CC2)nc1 | > 10 µM | 0.0656 µM | > 10 µM | > 152 | > 152 | 0.0536 µM | 
26 | Cn1cc(CN[C@H]2CC[C@@H](Nc3ncc(C(=O)NO)cn3)CC2)c2cnccc21 | > 10 µM | 0.0638 µM | > 10 µM | > 157 | > 157 | 0.0513 µM | 
27 | O=C(NO)c1cnc(N[C@H]2CC[C@@H](NCc3ccccn3)CC2)nc1 | > 10 µM | 0.139 µM | > 10 µM | > 72 | > 72 | 0.21 µM | 
28 | Cn1cc(CN[C@H]2CC[C@@H](Nc3ncc(C(=O)NO)cn3)CC2)c2cccnc21 | > 10 µM | 0.0479 µM | > 10 µM | > 209 | > 209 | 0.0539 µM | 
29 | O=C(NO)c1cnc(N[C@H]2CC[C@@H](NCc3ccncc3)CC2)nc1 | > 10 µM | 0.156 µM | > 10 µM | > 64 | > 64 | 0.186 µM | 
30 | O=C(NO)c1cnc(N[C@H]2CC[C@@H](NCc3ccc4ccccc4c3)CC2)nc1 | 1.79 µM | 0.0154 µM | 1.13 µM | 73 | 116 | 0.0154 µM | 
31 | O=C(NO)c1cnc(N[C@H]2CC[C@@H](NCC3CCCCC3)CC2)nc1 | 3.63 µM | 0.0876 µM | 5.84 µM | 67 | 41 | 0.0534 µM | 
32 | O=C(NO)c1cnc(N[C@H]2CC[C@@H](NCc3ccc(-c4ccccc4)cc3)CC2)nc1 | 2.18 µM | 0.0921 µM | 2 µM | 22 | 24 | 0.179 µM | 
33 | O=C(NO)c1cnc(N[C@H]2CC[C@@H](NCc3ccnc4ccccc34)CC2)nc1 | > 10 µM | 0.057 µM | 7.12 µM | 125 | > 176 | 0.054 µM | 
34 | O=C(NO)c1cnc(N[C@H]2CC[C@@H](NCc3ccoc3)CC2)nc1 | > 10 µM | 0.109 µM | > 10 µM | > 91 | > 91 | 0.106 µM | 
35 | O=C(NO)c1cnc(N[C@H]2CC[C@@H](NCc3cc4ccccc4c4ccccc34)CC2)nc1 | 2.01 µM | 0.0107 µM | 1.29 µM | 120 | 187 | 0.0123 µM | 
